Experimental data from patent publication US12215100B2, “Anticancer compounds” (Pharma Mar, S.A., priority 2018, dated 2025).

Tests used:
Assay type in all cases: cell-based, human
A549 = test: SRB colorimetric cytotoxicity assay, A549; details: Homo sapiens, A549, 72 h, 72 hours treatment, lung carcinoma (NSCLC)
Description: (§1) The aim of this assay is to evaluate the in vitro cytostatic (ability to delay or arrest tumor cell growth) or cytotoxic (ability to kill tumor cells) activity of the samples being tested.
(§2) A colorimetric assay, using sulforhodamine B (SRB) reaction has been adapted to provide a quantitative measurement of cell growth and viability (following the technique described by V. Vichai and K. Kirtikara (2006) Nature Protoc. 1, 1112-1116.)
(§3) This form of assay employs 96-well cell culture microplates. All the cell lines used in this study were obtained from the American Type Culture Collection (ATCC), unless otherwise indicated, and derive from different types of human cancer.
(§4) Cells were maintained in Dulbecco's Modified Eagle Medium (DMEM) (for A549, HT-29 and MDA-MB-231) or RPMI (for PSN-1) supplemented with 10% Fetal Bovine Serum (FBS), 2 mM L-glutamine, 100 U/mL penicillin and 100 U/mL streptomycin at 37° C., 5% CO2 and 98% humidity. For the experiments, cells were harvested from subconfluent cultures using trypsinization and resuspended in fresh medium before counting and plating.
(§5) Cells were seeded in 96 well microtiter plates, at 5×10^3 cells per well in aliquots of 150 μL, and allowed to attach to the plate surface for 18 hours (overnight) in drug free medium. After that, one control (untreated) plate of each cell line was fixed (as described below) and used for time zero reference value. […] After 72 hours treatment, the antitumor effect was measured by using the SRB methodology: Briefly, cells were washed twice with PBS, fixed for 15 min in 1% glutaraldehyde solution at room temperature, rinsed twice in PBS, and stained in 0.4% SRB solution for 30 min at room temperature. Cells were then rinsed several times with 1% acetic acid solution and air-dried at room temperature. SRB was then extracted in 10 mM trizma base solution and the absorbance measured in an automated spectrophotometric plate reader at 490 nm. Effects on cell growth and survival were estimated by applying the NCI algorithm (Boyd M R and Pauli K D. Drug Dev Res. 1995, 34, 91-104).
(§6) Using the mean±SD of triplicates, a dose-response curve was automatically generated using nonlinear regression analysis to a 4-parameter logistic curve. Three reference parameters were calculated (NCI algorithm) by automatic interpolation: GI50=compound concentration that produces 50% cell growth inhibition, as compared to control cultures; TGI=total cell growth inhibition (cytostatic effect), as compared to control cultures, and LC50=compound concentration that produces 50% net cell killing (cytotoxic effect).

HT29 = test: SRB colorimetric cytotoxicity assay, HT29; details: Homo sapiens, HT-29, 72 h, 72 hours treatment, colorectal adenocarcinoma
Description: as §1, §2, §3, §4, §5, §6

MDA-MB-231 = test: SRB colorimetric cytotoxicity assay, MDA-MB-231; details: Homo sapiens, MDA-MB-231, 72 h, 72 hours treatment, breast adenocarcinoma
Description: as §1, §2, §3, §4, §5, §6

PSN-1 = test: SRB colorimetric cytotoxicity assay, PSN-1; details: Homo sapiens, PSN1, 72 h, 72 hours treatment, pancreatic adenocarcinoma
Description: as §1, §2, §3, §4, §5, §6

## C=Cc1cc([C@@H](CCC)NC(=O)[C@]2(C)CSC(/C(C)=N/O)=N2)oc(=O)c1 [Compound 79]
A549
  GI50: 424 nM
HT29
  GI50: 397 nM
MDA-MB-231
  GI50: 344 nM
PSN-1
  GI50: 477 nM

## CCC[C@@H](NC(=O)[C@]1(C)CSC(/C(C)=N/O)=N1)c1cc(O)cc(=O)[nH]1 [Compound 82]
A549
  GI50: 1640 nM
HT29
  GI50: 491 nM
MDA-MB-231
  GI50: 1120 nM
PSN-1
  GI50: 355 nM

## CCC[C@@H](NC(=O)[C@]1(C)CSC(/C(C)=N/O)=N1)c1cc(OCCOCCOCCOCC)cc(=O)o1 [Compound 87]
A549
  GI50: 5690 nM
HT29
  GI50: 5500 nM
MDA-MB-231
  GI50: 6820 nM
PSN-1
  GI50: 7010 nM

## CCC[C@@H](NC(=O)[C@]1(C)CSC(/C(C)=N/O)=N1)c1cc(O)cc(=O)o1 [Compound 88]
A549
  GI50: 20400 nM
HT29
  GI50: 11400 nM
MDA-MB-231
  GI50: 21800 nM
PSN-1
  GI50: 18800 nM

## CCC[C@@H](NC(=O)[C@]1(C)CSC(/C(C)=N/O)=N1)c1cc(OCCCN)cc(=O)o1 [Compound 89]
A549
  GI50: 16500 nM
HT29
  GI50: 8950 nM
MDA-MB-231
  GI50: 5890 nM
PSN-1
  GI50: 6360 nM

## CCC[C@@H](NC(=O)[C@@H]1CSC(/C(C)=N/O)=N1)c1cc(OC)cc(=O)o1 [Compound 92]
A549
  GI50: 1550 nM
HT29
  GI50: 1280 nM
MDA-MB-231
  GI50: 953 nM
PSN-1
  GI50: 953 nM

## C=CCO/N=C(\C)C1=N[C@](C)(C(=O)N[C@H](CCC)c2cc(OC)cc(=O)o2)CS1 [Compound 93]
A549
  GI50: 21.4 nM
HT29
  GI50: 23.5 nM
MDA-MB-231
  GI50: 38 nM
PSN-1
  GI50: 28.5 nM

## C#CCO/N=C(\C)C1=N[C@](C)(C(=O)N[C@H](CCC)c2cc(OC)cc(=O)o2)CS1 [Compound 94]
A549
  GI50: 35.8 nM
HT29
  GI50: 22.6 nM
MDA-MB-231
  GI50: 35.8 nM
PSN-1
  GI50: 35.8 nM

## CCC[C@@H](NC(=O)[C@]1(C)CSC(/C(C)=N/OC(=O)COCCOCCOC)=N1)c1cc(OC)cc(=O)o1 [Compound 95]
A549
  GI50: 20.3 nM
HT29
  GI50: 40.6 nM
MDA-MB-231
  GI50: 44.3 nM
PSN-1
  GI50: 33.2 nM

## CCC[C@@H](NC(=O)[C@]1(C)CSC(/C(C)=N/OCCOCCOCCOCC)=N1)c1cc(OC)cc(=O)o1 [Compound 96]
A549
  GI50: 1770 nM
HT29
  GI50: 1510 nM
MDA-MB-231
  GI50: 2950 nM
PSN-1
  GI50: 2220 nM

## CCC[C@@H](NC(=O)[C@]1(C)CSC(/C(C)=N/OCCCNC(=O)OC(C)(C)C)=N1)c1cc(OC)cc(=O)o1 [Compound 97]
A549
  GI50: 631 nM
HT29
  GI50: 594 nM
MDA-MB-231
  GI50: 1150 nM
PSN-1
  GI50: 835 nM

## CCC[C@@H](NC(=O)[C@]1(C)CSC(/C(C)=N/OCCCN)=N1)c1cc(OC)cc(=O)o1 [Compound 98]
A549
  GI50: 22.1 nM
HT29
  GI50: 25.1 nM
MDA-MB-231
  GI50: 34.2 nM
PSN-1
  GI50: 27.4 nM

## CCC[C@@H](NC(=O)[C@]1(C)CSC(/C(C)=N/N)=N1)c1cc(OC)cc(=O)o1 [Compound 99]
A549
  GI50: 578 nM
HT29
  GI50: 447 nM
MDA-MB-231
  GI50: 657 nM
PSN-1
  GI50: 920 nM

## CCC[C@@H](NC(=O)[C@]1(C)COC(/C(C)=N/O)=N1)c1cc(OC)cc(=O)o1 [Compound 106]
A549
  GI50: 1010 nM
HT29
  GI50: 712 nM
MDA-MB-231
  GI50: 876 nM
PSN-1
  GI50: 1560 nM

## C=CCOc1cc([C@@H](CCC)NC(=O)[C@]2(C)CSC(/C(C)=N/O[C@H]3O[C@H](COC(C)=O)[C@@H](OC(C)=O)[C@H](OC(C)=O)[C@H]3OC(C)=O)=N2)oc(=O)c1 [Compound 107]
A549
  GI50: 52.9 nM
HT29
  GI50: 52.9 nM
MDA-MB-231
  GI50: 78.6 nM
PSN-1
  GI50: 61 nM

## C=CCOc1cc([C@@H](CCC)NC(=O)[C@]2(C)CSC(/C(C)=N/O[C@H]3O[C@@H]4COC(C)(C)O[C@H]4[C@@H]4OC(C)(C)O[C@H]34)=N2)oc(=O)c1 [Compound 110]
A549
  GI50: 43.1 nM
HT29
  GI50: 36.9 nM
MDA-MB-231
  GI50: 78.5 nM
PSN-1
  GI50: 56.9 nM

## C=CCOc1cc([C@@H](CCC)NC(=O)[C@]2(C)CSC(/C(C)=N/O[C@H]3O[C@H](CO)[C@@H](O)[C@@H]4OC(C)(C)O[C@H]34)=N2)oc(=O)c1 [Compound 111]
A549
  GI50: 26.2 nM
HT29
  GI50: 24.6 nM
MDA-MB-231
  GI50: 29.5 nM
PSN-1
  GI50: 37.7 nM
